Experimental data as given in patent publication US11932636B2, “RAD51 inhibitors” (Cyteir Therapeutics, Inc., priority 2019, dated 2024).

tested on: Daudi cells (AID positive); experiment: Compound primary screening: cell death in AID positive Daudi cells (Cell-Titer Glo, Day 7); format: cell-based; conditions: Homo sapiens, 168 h; Daudi cells, AID positive; cell death on Day 7, Cell-Titer Glo; read-out: Cellular activity in AID + (Daudi)
In short: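 AID-positive Daudi cells were seeded at 1250 cells per well and treated with serially diluted compound delivered from a DMSO/media master plate. Cultures were incubated at 37 °C, and cell death was measured on Day 7 with Cell-Titer Glo luminescence.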

| Structure (SMILES) | EC50 [nM] |
| --- | --- |
| CCNS(=O)(=O)c1cc(C(=O)Nc2ncc[nH]2)ccc1-c1cnc([C@H]2CC[C@H](NC(=O)OC(C)C)CC2)s1 [Compound 94, isopropyl trans-N-[4-[5-[2-(ethylsulfamoyl)-4-(1H-imidazol-2-ylcarbamoyl)phenyl]thiazol-2-yl]cyclohexyl]carbamate] | < 100 |
| CCNS(=O)(=O)c1cc(C(=O)N2CCCC2)ccc1-c1cnc([C@H]2CC[C@H](NC(=O)OC(C)C)CC2)s1 [Compound 95, isopropyl trans-N-[4-[5-[4-pyrrolidin-1-ylcarbonyl-2-(ethylsulfamoyl)phenyl]thiazol-2-yl]cyclohexyl]carbamate] | 100 to 1000 |
| CCNS(=O)(=O)c1cc(CC(=O)NC(C)C)ccc1-c1cnc(N2CCN(C(=O)OC3COC3)CC2)s1 [Compound 96, oxetan-3-yl 4-(5-(2-(N-ethylsulfamoyl)-4-(2-(isopropylamino)-2-oxoethyl)phenyl)thiazol-2-yl)piperazine-1-carboxylate] | > 10000 |
| CC(C)OC(=O)N[C@H]1CC[C@H](c2ncc(-c3ccc(CC(=O)NCc4ccccc4)cc3S(=O)(=O)NC(C)(C)C)s2)CC1 [Compound 97, isopropyl trans-N-[4-[5-[4-[2-(benzylamino)-2-oxo-ethyl]-2-(tert-butylsulfamoyl)phenyl]thiazol-2-yl]cyclohexyl]carbamate] | < 100 |
| CC(C)(C)NS(=O)(=O)c1cc(CC(=O)NCc2ccccc2)ccc1-c1cnc([C@H]2CC[C@H](NC(=O)OC3COC3)CC2)s1 [Compound 98, oxetan-3-yl trans-N-[4-[5-[4-[2-(benzylamino)-2-oxo-ethyl]-2-(tert-butylsulfamoyl)phenyl]thiazol-2-yl]cyclohexyl]carbamate] | < 100 |
| CCNS(=O)(=O)c1cc(OCCC(C)C)ccc1-c1cnc([C@H]2CC[C@H](NC(=O)OC(C)C)CC2)s1 [Compound 99, isopropyl trans-N-[4-[5-[2-(ethylsulfamoyl)-4-isopentyloxy-phenyl]thiazol-2-yl]cyclohexyl]carbamate] | 100 to 1000 |
| CCNS(=O)(=O)c1cc(OCCC(C)C)ccc1-c1cnc([C@H]2CC[C@H](NC(=O)OC3COC3)CC2)s1 [Compound 100, oxetan-3-yl trans-N-[4-[5-[2-(ethylsulfamoyl)-4-isopentyloxy-phenyl]thiazol-2-yl]cyclohexyl]carbamate] | 100 to 1000 |
| CC(C)CCOc1ccc(-c2cnc([C@H]3CC[C@H](NC(=O)OC(C)C)CC3)s2)c(S(=O)(=O)NC(C)(C)C)c1 [Compound 101, isopropyl trans-N-[4-[5-[2-(tert-butylsulfamoyl)-4-isopentyloxy-phenyl]thiazol-2-yl]cyclohexyl]carbamate] | 1000 to 10000 |
| CC(C)CCOc1ccc(-c2cnc([C@H]3CC[C@H](NC(=O)OC4COC4)CC3)s2)c(S(=O)(=O)NC(C)(C)C)c1 [Compound 102, oxetan-3-yl trans-N-[4-[5-[2-(tert-butylsulfamoyl)-4-isopentyloxy-phenyl]thiazol-2-yl]cyclohexyl]carbamate] | 1000 to 10000 |
| CCNS(=O)(=O)c1cc(Nc2nccn2C)ccc1-c1cnc([C@H]2CC[C@H](NC(=O)OC(C)C)CC2)s1 [Compound 105, isopropyl trans-N-[4-[5-[2-(ethylsulfamoyl)-4-[(1-methylimidazol-2-yl)amino]phenyl]thiazol-2-yl]cyclohexyl]carbamate] | < 100 |
| CCNS(=O)(=O)c1cc(Nc2nccn2C)ccc1-c1cnc([C@H]2CC[C@@H](NC(=O)OC(C)C)CC2)s1 [Compound 106, isopropyl cis-N-[4-[5-[2-(ethylsulfamoyl)-4-[(1-methylimidazol-2-yl)amino]phenyl]thiazol-2-yl]cyclohexyl]carbamate] | < 100 |
| CCNS(=O)(=O)c1cc(Nc2nccn2CC(C)C)ccc1-c1cnc([C@H]2CC[C@H](NC(=O)OC(C)C)CC2)s1 [Compound 107, isopropyl trans-N-[4-[5-[2-(ethylsulfamoyl)-4-[(1-isobutylimidazol-2-yl)amino]phenyl]thiazol-2-yl]cyclohexyl]carbamate] | < 100 |
| CCNS(=O)(=O)c1cc(N)ccc1-c1cnc([C@H]2CC[C@H](NC(=O)OC3CC3)CC2)s1 [Compound 108, cyclopropyl trans-N-[4-[5-[4-amino-2-(ethylsulfamoyl)phenyl]thiazol-2-yl]cyclohexyl]carbamate] | < 100 |
| CC(C)OC(=O)N[C@H]1CC[C@@H](c2ncc(-c3ccc(Nc4ncc[nH]4)cc3S(=O)(=O)NC(C)(C)C)s2)CC1 [Compound 110, isopropyl cis-N-[4-[5-[2-(tert-butylsulfamoyl)-4-(1H-imidazol-2-ylamino)phenyl]thiazol-2-yl]cyclohexyl]carbamate] | 100 to 1000 |
| CCNS(=O)(=O)c1cc(Nc2cc(C(C)C)ccn2)ccc1-c1cnc([C@H]2CC[C@H](NC(=O)OC(C)C)CC2)s1 [Compound 111, isopropyl trans-N-[4-[5-[2-(ethylsulfamoyl)-4-[(4-isopropyl-2-pyridyl)amino]phenyl]thiazol-2-yl]cyclohexyl]carbamate] | 100 to 1000 |
| CCNS(=O)(=O)c1cc(Nc2cccc(C(C)C)n2)ccc1-c1cnc([C@H]2CC[C@H](NC(=O)OC(C)C)CC2)s1 [Compound 112, isopropyl trans-N-[4-[5-[2-(ethylsulfamoyl)-4-[(6-isopropyl-2-pyridyl)amino]phenyl]thiazol-2-yl]cyclohexyl]carbamate] | < 100 |
| CCNS(=O)(=O)c1cc(Nc2ccc(C(C)C)cn2)ccc1-c1cnc([C@H]2CC[C@H](NC(=O)OC(C)C)CC2)s1 [Compound 113, isopropyl trans-N-[4-[5-[2-(ethylsulfamoyl)-4-[(5-isopropyl-2-pyridyl)amino]phenyl]thiazol-2-yl]cyclohexyl]carbamate] | < 100 |
| CCNS(=O)(=O)c1cc(N2CC(OC(C)C)C2)ccc1-c1cnc([C@H]2CC[C@H](NC(=O)OC(C)C)CC2)s1 [Compound 114, isopropyl trans-N-[4-[5-[2-(ethylsulfamoyl)-4-[3-isopropoxyazetidin-1-yl]phenyl]thiazol-2-yl]cyclohexyl]carbamate] | 100 to 1000 |
| CCNS(=O)(=O)c1cc(Nc2nnc(C(C)C)s2)ccc1-c1cnc(C2CCC(NC(=O)OC(C)C)CC2)s1 (stereo not drawn) [Compound 115, isopropyl trans-N-[4-[5-[2-(ethylsulfamoyl)-4-[(5-isopropyl-1,3,4-thiadiazol-2-y)amino]phenyl]thiazol-2-yl]cyclohexyl]carbamate] | < 100 |

same assay, conditions: Homo sapiens, Daudi, 168 h, read-out: Cellular activity in AID + (Daudi)

| Structure (SMILES) | EC50 [nM] |
| --- | --- |
| CCNS(=O)(=O)c1cc(Cc2ncco2)ccc1-c1cnc([C@H]2CC[C@H](NC(=O)OC(C)C)CC2)s1 [Compound 103, isopropyl trans-N-[4-[5-[2-(ethylsulfamoyl)-4-(oxazol-2-ylmethyl)phenyl]thiazol-2-yl]cyclohexyl]carbamate] | 100 to 1000 |
| CCNS(=O)(=O)c1cc(-c2ncco2)ccc1-c1cnc([C@H]2CC[C@H](NC(=O)OC(C)C)CC2)s1 [Compound 104, isopropyl trans-N-[4-[5-[2-(ethylsulfamoyl)-4-oxazol-2-yl-phenyl]thiazol-2-yl]cyclohexyl]carbamate] | 100 to 1000 |
| CCNS(=O)(=O)c1cc(Nc2ncc[nH]2)ccc1-c1cnc([C@H]2CC[C@H](NC(=O)OC3CC3)CC2)s1 [Compound 109, cyclopropyl trans-N-[4-[5-[2-(ethylsulfamoyl)-4-(1H-imidazol-2-ylamino)phenyl]thiazol-2-yl]cyclohexyl]carbamate] | 100 to 1000 |
